US8501713B2, “Drug combinations for the treatment of duchenne muscular dystrophy” (Summit Corporation PLC, priority 2007, dated 2013)

System: Utrophin A promoter linked to a luciferase reporter gene
Test: Luciferase reporter assay (murine H2K cells)
Type: cell-based
Conditions: Mus musculus, H2K mdx, luciferase level relative to control; H2K/mdx/Utro A reporter cells; compound 10 μM final concentration; read-out: Activity
Method in brief: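 Immortalized mdx mouse H2K myoblasts stably carrying a ~5 kb utrophin A promoter–luciferase construct, kept at 33° C, 10% CO2. After 24 hrs plating, compound added at 10 μM final for 48 hrs; luciferase light output read after in-situ lysis.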

SMILES | activity at 10 µM
CC(C)CN(C)c1ccc2oc(-c3ccc(Cl)cc3)nc2c1 [Example 322, 2-(4-chlorophenyl)-N-isobutyl-N-methylbenzo[d]oxazol-5-amine] | < 200%
COCCC(=O)Nc1ccc2oc(-c3ccc(Cl)cc3)nc2c1 [Example 323, N-(2-(4-chlorophenyl)benzo[d]oxazol-5-yl)-3-methoxypropanamide] | > 401%
O=[N+]([O-])c1ccc2nc(-c3ccc(Cl)c(Cl)c3)oc2c1 [Example 324, 2-(3,4-dichlorophenyl)-6-nitrobenzo[d]oxazole] | 201 to 300%
NS(=O)(=O)c1ccc2oc(-c3ccc(Cl)cc3)nc2c1 [Example 325, 2-(4-chlorophenyl)benzo[d]oxazole-5-sulfonamide] | > 401%
O=[N+]([O-])c1cc2oc(-c3ccc(Cl)cc3)nc2cc1Cl [Example 326, 5-chloro-2-(4-chlorophenyl)-6-nitrobenzo[d]oxazole] | 301 to 400%
COc1cccc(-c2ccc3oc(-c4ccc(Cl)cc4)nc3c2)n1 [Example 327, 2-(4-chlorophenyl)-5-(6-methoxypyridin-2-yl)benzo[d]oxazole] | < 200%
Nc1cccc(-c2ccc3oc(-c4ccc(Cl)cc4)nc3c2)c1 [Example 328, 3-(2-(4-chlorophenyl)benzo[d]oxazol-5-yl)aniline] | > 401%
Nc1ccc(-c2ccc3oc(-c4ccc(Cl)cc4)nc3c2)cc1 [Example 329, 4-(2-(4-chlorophenyl)benzo[d]oxazol-5-yl)aniline] | > 401%
Clc1ccc2oc(-c3ccncc3)nc2c1 [Example 330, 5-chloro-2-(pyridin-4-yl)benzo[d]oxazole] | < 200%
Clc1ccc2nc(-c3ccncc3)oc2c1 [Example 331, 6-chloro-2-(pyridin-4-yl)benzo[d]oxazole] | < 200%
CC(=O)Nc1ccc(-c2nc3ccc(Cl)cc3o2)cc1 [Example 332, N-(4-(6-chlorobenzo[d]oxazol-2-yl)phenyl)acetamide] | 301 to 400%
CC(C)C(=O)Nc1ccc(-c2nc3ccc(Cl)cc3o2)cc1 [Example 333, N-(4-(6-chlorobenzo[d]oxazol-2-yl)phenyl)isobutyramide] | 201 to 300%
O=C(Nc1ccc(-c2nc3ccc(Cl)cc3o2)cc1)c1cccs1 [Example 334, N-(4-(6-chlorobenzo[d]oxazol-2-yl)phenyl)thiophene-2-carboxamide] | < 200%
CC(C)CN(CC(C)C)c1ccc2oc(-c3ccc(Cl)cc3)nc2c1 [Example 335, 2-(4-chlorophenyl)-N,N-diisobutylbenzo[d]oxazol-5-amine] | < 200%
Nc1ccc(-c2nc3cc(Br)ccc3o2)cc1 [Example 336, 4-(5-bromobenzo[d]oxazol-2-yl)aniline] | > 401%
Nc1ccc(C(=O)Nc2ccc(-c3nc4cc(Br)ccc4o3)cc2)cc1 [Example 337, 4-amino-N-(4-(5-bromobenzo[d]oxazol-2-yl)phenyl)benzamide] | < 200%
Nc1ccc(-c2ccc3oc(-c4ccc(Cl)cc4)nc3c2)cn1 [Example 338, 5-(2-(4-chlorophenyl)benzo[d]oxazol-5-yl)pyridin-2-amine] | > 401%
Clc1ccc(-c2cc3cc(-c4ccccc4)ccc3[nH]2)cc1 [Example 339, 2-(4-chlorophenyl)-5-phenyl-1H-indole] | < 200%
CC(C)C(=O)Nc1ccc2oc(-c3ccc(F)cc3Cl)nc2c1 [Example 340, N-(2-(2-chloro-4-fluorophenyl)benzo[d]oxazol-5-yl)isobutyramide] | > 401%

SMILES | activity at 10 µM
CC(C)C(=O)Nc1ccc2oc(-c3c(F)cccc3Cl)nc2c1 [Example 341, N-(2-(2-chloro-6-fluorophenyl)benzo[d]oxazol-5-yl)isobutyramide] | < 200%
CC(C)C(=O)Nc1ccc2oc(-c3cccc(Cl)c3F)nc2c1 [Example 342, N-(2-(3-chloro-2-fluorophenyl)benzo[d]oxazol-5-yl)isobutyramide] | > 401%
CC(C)C(=O)Nc1ccc2oc(-c3ccc(Cl)cc3F)nc2c1 [Example 343, N-(2-(4-chloro-2-fluorophenyl)benzo[d]oxazol-5-yl)isobutyramide] | > 401%
CC(C)C(=O)Nc1ccc2oc(-c3cc(F)ccc3Cl)nc2c1 [Example 344, N-(2-(2-chloro-5-fluorophenyl)benzo[d]oxazol-5-yl)isobutyramide] | < 200%
O=C(CC(F)(F)F)Nc1ccc2oc(-c3ccc(Cl)cc3)nc2c1 [Example 345, N-(2-(4-chlorophenyl)benzo[d]oxazol-5-yl)-3,3,3-trifluoropropanamide] | 301 to 400%
O=C(Nc1ccc2oc(-c3ccc(Cl)cc3)nc2c1)C1CCCC1 [Example 346, N-(2-(4-chlorophenyl)benzo[d]oxazol-5-yl)cyclopentanecarboxamide] | < 200%
CC(C)C(=O)Nc1cc2oc(-c3ccc(Cl)cc3)nc2cc1Cl [Example 347, N-(5-chloro-2-(4-chlorophenyl)benzo[d]oxazol-6-yl)isobutyramide] | 201 to 300%
O=[N+]([O-])c1ccc2oc(-c3ccc(OC(F)(F)F)cc3)nc2c1 [Example 348, 5-nitro-2-(4-(trifluoromethoxy)phenyl)benzo[d]oxazole] | 201 to 300%
CC(C)C(=O)Nc1ccc2oc(C3CCOCC3)nc2c1 [Example 349, N-(2-(tetrahydro-2H-pyran-4-yl)benzo[d]oxazol-5-yl)isobutyramide] | < 200%
Nc1ccc2oc(-c3ccc(OC(F)(F)F)cc3)nc2c1 [Example 350, 2-(4-(trifluoromethoxy)phenyl)benzo[d]oxazol-5-amine] | 201 to 300%
O=C(Nc1ccc2oc(-c3ccc(Cl)c(Cl)c3)nc2c1)C1CC1 [Example 351, N-(2-(3,4-dichlorophenyl)benzo[d]oxazol-5-yl)cyclopropanecarboxamide] | > 401%
O=C(CC(F)(F)F)Nc1ccc2oc(-c3ccc(Cl)c(Cl)c3)nc2c1 [Example 352, N-(2-(3,4-dichlorophenyl)benzo[d]oxazol-5-yl)-3,3,3-trifluoropropanamide] | > 401%
O=C(Nc1ccc2nc(-c3ccc(Cl)cc3)oc2c1)C1CC1 [Example 353, N-(2-(4-chlorophenyl)benzo[d]oxazol-6-yl)cyclopropanecarboxamide] | 201 to 300%
CC(C)C(=O)Nc1ccc2nc(-c3cccc(Cl)c3Cl)oc2c1 [Example 354, N-(2-(2,3-dichlorophenyl)benzo[d]oxazol-6-yl)isobutyramide] | 301 to 400%
CC(C)C(=O)Nc1ccc2oc(-c3ccc(OC(F)(F)F)cc3)nc2c1 [Example 355, N-(2-(4-(trifluoromethoxy)phenyl)benzo[d]oxazol-5-yl)isobutyramide] | < 200%
Nc1ccc(-c2nc3cc(-c4ccc(Cl)cc4)ccc3o2)cc1 [Example 356, 4-(5-(4-chlorophenyl)benzo[d]oxazol-2-yl)aniline] | < 200%
O=[N+]([O-])c1ccc2oc(N3CCOCC3)nc2c1 [Example 357, 2-morpholino-5-nitrobenzo[d]oxazole] | < 200%
CC(=O)Nc1ccc(-c2ccc3oc(-c4ccc(Cl)cc4)nc3c2)cn1 [Example 358, N-(5-(2-(4-chlorophenyl)benzo[d]oxazol-5-yl)pyridin-2-yl)acetamide] | < 200%
